Where a SMILES comes first, the peptide text is derived from it. [ ]: non-standard residue; d: D form.
Experiments:
Type in all cases: cell-based
[1] = system: C. quillermondiae; experiment: MIC, clinical yeast strains; parameters: Minimum inhibitory concentration: unit: μg/ml; details: C. quillermondiae clinical yeast strain 1
Method: (§1) Minimum inhibition concetrations (MICs) were determined against Escherichia coli (ATCC 25922), Staphylococcus aureus (ATCC 25923), Klebsiella pneumoniae (ATCC 10031) and Pseudomonas aeruginosa (ATCC 27853). Also clinical strains of E. coli, K. pneumoniae, E. cloacae, P. aeruginosa, Serratia marcescens, Proteus mirabilis, S. pneumoniae, Acinetobacter baumannii, A. johnsonii and S. aureus were used for MICs assays. Additionally, clinical strains of yeast including Candida albicans, C. glabrata, C. parapsilosis and C. quillermondiae were used. The susceptibility of these microorganisms to Chain peptides were determined using micro broth dilution assay. Colonies of the respective microorganism from Muller Hinton (MH) agar plates incubated overnight were suspended in MH broth media and final concentration of microorganism was adjusted to 5.0×10^5 cfu/ml. An aliquot of 10 μl of each Chain peptide, or gentamicin, tetracycline as reference antibiotics were added in differing concentrations along with 90 μl of bacterial suspension to 96 well polypropylene plates and incubated at 37° C. for 20 to 24 hours. Concentrations of Chain peptides and reference antibiotics ranged from 0.125 to 128 μg/ml and the MICs were recorded as the lowest concentration with no visual growth of bacteria. Similarly, antifungal MICs were tested in Potato dextrose broth.
(§2) Clinical strains of yeasts including Candida albicans, C. glabrata, C. parapsilosis and C. quillermondiae were also tested with the 12 Chain peptides. The minimum inhibitory concentration (MICs) varied between these peptides and are presented in Tables 4a, 4b, 4c and 5a, 5b, 5c. Peptides Chain 105, 201 and 308 are broad spectrum antimicrobials with MICs between 0.5-32 μg/ml against all the bacteria and yeasts tested, except Serratia marcescens and Proteus mirabilis, against which the MICs were between 64-128 μg/ml. Peptide Chain 306 has narrow spectrum activity against E. coli at 1 μg/ml and for the rest of the bacterial strains at >32 μg/ml (FIG. 10c).

[2] = system: C. parapsilosis; experiment: MIC, clinical yeast strains
Method: as §1, §2

[3] = system: C. glabrata; experiment: MIC, clinical yeast strains
Method: as §1, §2

[4] = system: Candida albicans; experiment: MIC, clinical yeast strains
Method: as §1, §2

[5] = system: clinical strains of Serratia marcescens; experiment: MIC, microdilution, clinical strains; details: 0.02% BSA, 0.2% acetic acid
Method: as §1, §2

[6] = system: clinical strains of S. pneumoniae; experiment: MIC, microdilution, clinical strains; details: 0.02% BSA, 0.2% acetic acid
Method: as §1, §2

[7] = system: clinical strains of S. aureus; experiment: MIC, microdilution, clinical strains; details: 0.02% BSA, 0.2% acetic acid
Method: as §1, §2

[8] = system: clinical strains of Proteus mirabilis; experiment: MIC, microdilution, clinical strains; details: 0.02% BSA, 0.2% acetic acid
Method: as §1, §2

[9] = system: clinical strains of E. cloacae; experiment: MIC, microdilution, clinical strains; details: 0.02% BSA, 0.2% acetic acid
Method: as §1, §2

[10] = system: clinical strains of E. coli; experiment: MIC, microdilution, clinical strains; details: microdilution, Muller Hinton broth-cation adjusted, 0.02% BSA, 0.2% acetic acid
Method: as §1, §2

[11] = system: clinical strains of K. pneumoniae; experiment: MIC, microdilution, clinical strains; details: 0.02% BSA, 0.2% acetic acid
Method: as §1, §2

[12] = system: clinical strains of P. aeruginosa; experiment: MIC, microdilution, clinical strains; details: 0.02% BSA, 0.2% acetic acid
Method: as §1, §2

[13] = C. parapsilosis clinical yeast strain 1
[14] = C. parapsilosis clinical yeast strain 2
[15] = C. parapsilosis clinical yeast strain 3
[16] = C. parapsilosis clinical yeast strain 4
[17] = C. glabrata clinical yeast strain 1
[18] = C. glabrata clinical yeast strain 2
[19] = C. glabrata clinical yeast strain 3
[20] = C. glabrata clinical yeast strain 4
[21] = Candida albicans clinical yeast strain 1
[22] = Candida albicans clinical yeast strain 2
[23] = Candida albicans clinical yeast strain 3
[24] = Candida albicans clinical yeast strain 4
[25] = Candida albicans clinical yeast strain 5

C[C@@H]1[C@H](O)[C@@H](C)/C=C/C=C/C=C/C=C/C=C/C=C/C=C/[C@H](O[C@@H]2O[C@H](C)[C@@H](O)[C@H](N)[C@@H]2O)C[C@@H]2O[C@](O)(C[C@@H](O)C[C@@H](O)[C@H](O)CC[C@@H](O)C[C@@H](O)CC(=O)O[C@H]1C)C[C@H](O)[C@H]2C(=O)O [Amphotericin B]
Minimum inhibitory concentration [1]: 2
Minimum inhibitory concentration [2, 13]: 2
Minimum inhibitory concentration [2, 14]: 2
Minimum inhibitory concentration [2, 15]: 2
Minimum inhibitory concentration [2, 16]: 2
Minimum inhibitory concentration [3, 17]: 4
Minimum inhibitory concentration [3, 18]: 4
Minimum inhibitory concentration [3, 19]: 2
Minimum inhibitory concentration [3, 20]: 4
Minimum inhibitory concentration [4, 21]: 2
Minimum inhibitory concentration [4, 22]: 0.5
Minimum inhibitory concentration [4, 23]: 2
Minimum inhibitory concentration [4, 24]: 2
Minimum inhibitory concentration [4, 25]: 2

CC[C@@H](C)[C@@H](N)C(=O)N[C@H](Cc1c[nH]c2ccccc12)C(=O)N[C@H](CCCCN)C(=O)N[C@H](CCCNC(=N)N)C(=O)N[C@H](Cc1ccccc1)C(=O)N[C@H](CCCNC(=N)N)C(=O)N[C@H](CC(C)C)C(=O)N[C@H](Cc1ccccc1)C(=O)N[C@H](CCCCN)C(=O)N[C@H](CCCCN)C(=O)N[C@H](Cc1c[nH]c2ccccc12)C(=O)O [Chain304D] (H-[dI][dW][dK][dR][dF][dR][dL][dF][dK][dK][dW]-OH)
Minimum inhibitory concentration [1]: 16
Minimum inhibitory concentration ([5]; Serratia marcescens strain 1, Muller Hinton broth-cation adjusted): >128
Minimum inhibitory concentration ([5]; Serratia marcescens strain 2, Muller Hinton broth-cation adjusted): >128
Minimum inhibitory concentration ([5]; Serratia marcescens strain 3, Muller Hinton broth-cation adjusted): >128
Minimum inhibitory concentration ([5]; Serratia marcescens strain 4, Muller Hinton broth-cation adjusted): >128
Minimum inhibitory concentration ([5]; Serratia marcescens strain 5, Muller Hinton broth-cation adjusted): >128
Minimum inhibitory concentration ([6]; Streptococcus pneumoniae strain 1, Muller Hinton broth-cation adjusted): 128
Minimum inhibitory concentration ([6]; Streptococcus pneumoniae strain 2, Muller Hinton broth-cation adjusted): 128
Minimum inhibitory concentration ([6]; Streptococcus pneumoniae strain 3, Muller Hinton broth-cation adjusted): 128
Minimum inhibitory concentration ([6]; Streptococcus pneumoniae strain 4, Muller Hinton broth-cation adjusted): 128
Minimum inhibitory concentration ([6]; Streptococcus pneumoniae strain 5, Muller Hinton broth-cation adjusted): 64
Minimum inhibitory concentration ([7]; Staphylococcus aureus strain 1, Muller Hinton broth-cation adjusted): 32
Minimum inhibitory concentration ([7]; Staphylococcus aureus strain 2, Muller Hinton broth-cation adjusted): 32
Minimum inhibitory concentration ([7]; Staphylococcus aureus strain 3, Muller Hinton broth-cation adjusted): 16
Minimum inhibitory concentration ([7]; Staphylococcus aureus strain 4, Muller Hinton broth-cation adjusted): 16
Minimum inhibitory concentration ([7]; Staphylococcus aureus strain 5, Muller Hinton broth-cation adjusted): 16
Minimum inhibitory concentration ([8]; Proteus mirabilis strain 1, Muller Hinton broth-cation adjusted): >128
Minimum inhibitory concentration ([8]; Proteus mirabilis strain 2, Muller Hinton broth-cation adjusted): >128
Minimum inhibitory concentration ([8]; Proteus mirabilis strain 3, Muller Hinton broth-cation adjusted): >128
Minimum inhibitory concentration ([8]; Proteus mirabilis strain 4, Muller Hinton broth-cation adjusted): >128
Minimum inhibitory concentration ([8]; Proteus mirabilis strain 5, Muller Hinton broth-cation adjusted): >128
Minimum inhibitory concentration ([9]; Enterobacter cloacae strain 1, Muller Hinton broth-cation adjusted): 64
Minimum inhibitory concentration ([9]; Enterobacter cloacae strain 2, Muller Hinton broth-cation adjusted): 64
Minimum inhibitory concentration ([9]; Enterobacter cloacae strain 3, Muller Hinton broth-cation adjusted): 128
Minimum inhibitory concentration ([9]; Enterobacter cloacae strain 4, Muller Hinton broth-cation adjusted): 128
Minimum inhibitory concentration ([9]; Enterobacter cloacae strain 5, Muller Hinton broth-cation adjusted): 32
Minimum inhibitory concentration ([10]; Escherichia coli strain 1): 1
Minimum inhibitory concentration ([10]; Escherichia coli strain 2): 16
Minimum inhibitory concentration ([10]; Escherichia coli strain 3): 16
Minimum inhibitory concentration ([10]; Escherichia coli strain 4): 32
Minimum inhibitory concentration ([10]; Escherichia coli strain 5): 32
Minimum inhibitory concentration ([11]; Klebsiella pneumoniae strain 1, Muller Hinton broth-cation adjusted): >128
Minimum inhibitory concentration ([11]; Klebsiella pneumoniae strain 2, Muller Hinton broth-cation adjusted): >128
Minimum inhibitory concentration ([11]; Klebsiella pneumoniae strain 3, Muller Hinton broth-cation adjusted): >128
Minimum inhibitory concentration ([11]; Klebsiella pneumoniae strain 4, Muller Hinton broth-cation adjusted): >128
Minimum inhibitory concentration ([11]; Klebsiella pneumoniae strain 5, Muller Hinton broth-cation adjusted): 64
Minimum inhibitory concentration ([12]; Pseudomonas aeruginosa strain 1, Muller Hinton broth-cation adjusted): 32
Minimum inhibitory concentration ([12]; Pseudomonas aeruginosa strain 2, Muller Hinton broth-cation adjusted): 64
Minimum inhibitory concentration ([12]; Pseudomonas aeruginosa strain 3, Muller Hinton broth-cation adjusted): 64
Minimum inhibitory concentration ([12]; Pseudomonas aeruginosa strain 4, Muller Hinton broth-cation adjusted): 64
Minimum inhibitory concentration ([12]; Pseudomonas aeruginosa strain 5, Muller Hinton broth-cation adjusted): 16
Minimum inhibitory concentration [2, 13]: 64
Minimum inhibitory concentration [2, 14]: 64
Minimum inhibitory concentration [2, 15]: 32
Minimum inhibitory concentration [2, 16]: 16
Minimum inhibitory concentration [3, 17]: 16
Minimum inhibitory concentration [3, 18]: 16
Minimum inhibitory concentration [3, 19]: 8
Minimum inhibitory concentration [3, 20]: 64
Minimum inhibitory concentration [4, 21]: 16
Minimum inhibitory concentration [4, 22]: 16
Minimum inhibitory concentration [4, 23]: 16
Minimum inhibitory concentration [4, 24]: 16
Minimum inhibitory concentration [4, 25]: 32
